The target in assay [1] is T1, KRAS G12V (Homo sapiens, UniProt P01116, G12V). Briefly: KRAS_G12V GDP-GTP exchange assay (bodipy-GDP/GppNHp, SOS1). It counts as biochemical. The note with it: bodipy loaded KRAS G12V 2.5 nM, 3 hours incubation after GppNHp-SOS1; read-out: G12V_exchange (KRAS_G12V exchange assay IC50). As for the experimental part: (§1) The inhibitor potency of the exemplified compounds was determined in a fluorescence based guanine nucleotide exchange assay, which measures the exchange of bodipy-GDP (fluorescently labeled GDP) for GppNHp (Non-hydrolyzable GTP analog) to generate the active state of KRAS in the presence of SOS1 (guanine nucleotide exchange factor). Inhibitors were serially diluted in DMSO and a volume of 0.1 μL was transferred to the wells of a black low volume 384-well plate. 5 μL/well volume of bodipy-loaded KRAS G12D diluted to 2.5 nM in assay buffer (25 mM Hepes pH 7.5, 50 mM NaCl, 10 mM MgCl2 and 0.01% Brij-35) was added to the plate and pre-incubated with inhibitor for 4 hours at ambient temperature. Appropriate controls (enzyme with no inhibitor or with a G12D inhibitor) were included on the plate. The exchange was initiated by the addition of a 5 μL/well volume containing 1 mM GppNHp and 300 nM SOS1 in assay buffer. The 10 μL/well reaction concentration of the bodipy-loaded KRAS G12D, GppNHp, and SOS1 were 2.5 nM, 500 uM, and 150 nM, respectively. The reaction plates were incubated at ambient temperature for 2 hours, a time estimated for complete GDP-GTP exchange in the absence of inhibitor. For the KRAS G12V mutant, similar guanine nucleotide exchange assays were used with 2.5 nM as final concentration for the bodipy loaded KRAS proteins and 3 hours incubation after adding GppNHp-SOS1 mixture. A cyclic peptide described to selectively bind G12D mutant (Sakamoto et al., BBRC 484.3 (2017), 605-611) or internal compounds with confirmed binding were used as positive controls in the assay plates. Fluorescence intensities were measured on a PheraStar plate reader instrument (BMG Labtech) with excitation at 485 nm and emission at 520 nm.
(§2) Either GraphPad prism or XLfit was used to analyze the data. The IC50 values were derived by fitting the data to a four parameter logistic equation producing a sigmoidal dose-response curve with a variable Hill coefficient. Prism equation: Y=Bottom+(Top−Bottom)/(1+10^((Log IC50−X)*Hill slope)); XLfit equation: Y=(A+((B−A)/(1+((X/C)^D)))) where X is the logarithm of inhibitor concentration and Y is the response.

In assay [2] the target is T2, KRAS G12D (Homo sapiens, UniProt P01116, G12D). As to the kind of experiment: KRAS_G12D GDP-GTP exchange assay (bodipy-GDP/GppNHp, SOS1). The note with it: bodipy-loaded KRAS G12D 2.5 nM, 4 hours pre-incubation, 2 hours exchange. The assay is classed as biochemical. The procedure: as §1, §2
Assay [3] has as its target T1, KRAS G12V. As to the kind of experiment: KRAS_G12V pERK assay. It counts as cell-based. The note with it: read-out: G12V_pERK (KRAS_G12V pERK assay IC50).
Assay [4] concerns the target T2, KRAS G12D. As to the kind of experiment: KRAS_G12D cellular pERK HTRF assay. Details: CRL-1997; host or cells: A427 or HPAF-II. As to conditions: KRAS G12D cells (A427, HPAF-II), 2 hours; for IC50: read-out: G12D_pERK (KRAS_G12D pERK assay IC50). The assay is classed as cell-based. As for the experimental part:
MIA PaCa-2 (KRAS G12C; ATCC® CRL-1420), A427 (KRAS G12D; ATCC® HTB53), HPAF-II (KRAS G12D; ATCC® CRL-1997) and NCI-H838 (KRAS WT; ATCC® CRL-5844) cells are purchased from ATCC and maintained in RPMI 1640 media supplemented with 10% FBS (Gibco/Life Technologies). The cells are plated at 5000 cells per well (8 uL) into Greiner 384-well low volume, flat-bottom, tissue culture treated white plates and incubated overnight at 37° C., 5% CO2. The next morning, test compound stock solutions are diluted in media at 3x the final concentration, and 4 uL are added to the cells. The plate is mixed by gentle rotation for 30 seconds (250 rpm) at room temperature. The cells are incubated with the KRAS G12C and G12D compounds for 4 hours or 2 hours respectively at 37° C., 5% CO2.
4 uL of 4x lysis buffer with blocking reagent (1:25) (Cisbio) are added to each well and plates are rotated gently (300 rpm) for 30 minutes at room temperature. 4 uL per well of Cisbio anti Phospho-ERK 1/2 d2 is mixed with anti Phospho-ERK 1/2 Cryptate (1:1) are added to each well, mixed by rotation and incubated overnight in the dark at room temperature. Plates are read on the Pherastar plate reader at 665 nm and 620 nm wavelengths. IC50 determination is performed by fitting the curve of inhibitor percent inhibition versus the log of the inhibitor concentration using the GraphPad Prism 7 software.

T2 sequence (P01116 1-188 isoform P01116-2 G12D): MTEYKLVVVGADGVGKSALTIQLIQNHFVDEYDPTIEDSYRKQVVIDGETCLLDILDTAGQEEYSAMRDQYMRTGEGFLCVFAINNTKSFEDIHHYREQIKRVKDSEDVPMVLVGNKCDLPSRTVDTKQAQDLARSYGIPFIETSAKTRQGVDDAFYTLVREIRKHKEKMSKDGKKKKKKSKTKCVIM
T1 sequence (P01116 1-188 isoform P01116-2 G12V): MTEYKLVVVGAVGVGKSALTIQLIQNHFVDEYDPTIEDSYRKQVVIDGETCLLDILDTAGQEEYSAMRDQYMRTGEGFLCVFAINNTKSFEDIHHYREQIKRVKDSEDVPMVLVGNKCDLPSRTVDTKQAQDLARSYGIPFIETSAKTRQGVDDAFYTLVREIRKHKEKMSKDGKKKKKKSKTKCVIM

With `Cc1cc2c(OCC34CCCN3CCC4)nc3c(F)c(-c4cc(O)cc5ccccc45)ncc3c2n1[C@@H]1[C@@H]2CN[C@H]1C2` (relative stereo) [Example 4, 4-(1-((endo)-2-azabicyclo[2.1.1]hexan-5-yl)-6-fluoro-2-methyl-4-((tetrahydro-1H-pyrrolizin-7a(5H)-yl)methoxy)-1H-pyrrolo[3,2-c][1,6]naphthyridin-7-yl)naphthalen-2-ol], the figures for the IC50 on KRAS G12V [1], at KRAS G12V [3] and at KRAS G12D [4] were no more than 100 nM, 1000 to 5000 nM and 100 to 1000 nM, respectively. For the same compound, at KRAS G12D [2], the “G12D_exchange (KRAS_G12D exchange assay IC50)” value (from here on “G12D_exchange”) is on record as “†”.
With `COC(=O)CCc1nc2c(N3CC(N(C)C)C3)nc3c(F)c(-c4cc(O)cc5ccccc45)ncc3c2n1[C@@H]1[C@@H]2CN[C@H]1C2` (relative stereo) [Example 11, methyl 3-(1-((endo)-2-azabicyclo[2.1.1]hexan-5-yl)-4-(3-(dimethylamino)azetidin-1-yl)-6-fluoro-7-(3-hydroxynaphthalen-1-yl)-1H-imidazo[4,5-c][1,6]naphthyridin-2-yl)propanoate], the figures for the concentration for half-maximal inhibition (IC50) at KRAS G12V [1] and at KRAS G12D [4] were 100 to 1000 nM and 1000 to 5000 nM, respectively. Also, at KRAS G12D [2], the “G12D_exchange” value is listed as “†”.
`COC(=O)CCc1cc2c(O[C@@H](C)[C@@H]3CCCN3C)nc3c(F)c(-c4cc(O)cc5ccccc45)ncc3c2n1C1C2CNC1C2` (single isomer, unassigned) [Example 1a]: the IC50 on KRAS G12V [1] is no more than 100 nM; at KRAS G12V [3], 1000 to 5000 nM. The “G12D_exchange” value at KRAS G12D [2] was “†”. Further, the “G12D_pERK (KRAS_G12D pERK assay IC50)” value at KRAS G12D [4] was “†”.
For `COC(=O)CCc1cc2c(O[C@@H](C)[C@@H]3CCCN3C)nc3c(F)c(-c4cc(O)cc5ccccc45)ncc3c2n1C1C2CNC1C2` (single isomer, unassigned) [Example 1b], the IC50 on KRAS G12V [1] is no more than 100 nM; at KRAS G12V [3] it was 100 to 1000 nM. Moreover, the “G12D_exchange” value on KRAS G12D [2] is “†”.
Consider `COC(=O)CCc1cc2c(OC[C@@]34CCCN3C[C@H](F)C4)nc3c(F)c(-c4cc(O)cc5ccccc45)ncc3c2n1C1C2CNC1C2` (single isomer, unassigned) [Example 2a], for which the values for the half-inhibitory concentration (IC50) on KRAS G12V [1] and at KRAS G12D [4] were 100 to 1000 nM and 1000 to 5000 nM, respectively. In addition, at KRAS G12D [2], the “G12D_exchange” value is reported as “†”.
Regarding `COC(=O)CCc1cc2c(OC[C@@]34CCCN3C[C@H](F)C4)nc3c(F)c(-c4cc(O)cc5ccccc45)ncc3c2n1C1C2CNC1C2` (single isomer, unassigned) [Example 2b], the figures for the IC50 on KRAS G12V [1], at KRAS G12V [3] and at KRAS G12D [4] were no more than 100 nM, 5000 to 10000 nM and 100 to 1000 nM, respectively. Besides, the “G12D_exchange” value at KRAS G12D [2] is given as “†”.
For the compound `Cc1cc2c(O[C@@H](C)[C@@H]3CCCN3C)nc3c(F)c(-c4cc(O)cc5ccccc45)ncc3c2n1C1C2CNC1C2` (single isomer, unassigned) [Example 3a], the concentration for half-maximal inhibition (IC50) on KRAS G12V [1] was no more than 100 nM; on KRAS G12V [3], 100 to 1000 nM. Besides, the “G12D_exchange” value on KRAS G12D [2] was “†”. The “G12D_pERK (KRAS_G12D pERK assay IC50)” value on KRAS G12D [4] is “†”.
In the case of `Cc1cc2c(O[C@@H](C)[C@@H]3CCCN3C)nc3c(F)c(-c4cc(O)cc5ccccc45)ncc3c2n1C1C2CNC1C2` (single isomer, unassigned) [Example 3b], the half-maximal inhibitory concentration (IC50) was in the range of 100 to 1000 nM at KRAS G12V [1], 5000 to 10000 nM at KRAS G12V [3] and 100 to 1000 nM on KRAS G12D [4]. Besides, the “G12D_exchange” value at KRAS G12D [2] was “†”.
On to `C[C@H](Oc1nc2c(F)c(N3CCCc4ccccc43)ncc2c2c1cc(CN1CCOC1=O)n2C1C2CNC1C2)[C@@H]1CCCN1C` (single isomer, unassigned) [Example 7a], for which the IC50 at KRAS G12V [1] fell in the range of 100 to 1000 nM; at KRAS G12D [4] it was 1000 to 5000 nM. The “G12D_exchange” value at KRAS G12D [2] is recorded as “†”.
The matching figures for `C[C@H](Oc1nc2c(F)c(-c3cc(O)cc4ccccc34)ncc2c2c1nc(CCC(=O)N(C)C)n2C1C2CNC1C2)[C@@H]1CCCN1C` (single isomer, unassigned) [Example 9a]: no more than 100 nM, 1000 to 5000 nM and “†”.
Regarding `CN(C)C(=O)CCc1nc2c(N3CC(N(C)C)C3)nc3cc(-c4cc(O)cc5ccccc45)c(CCC#N)nc3c2n1C1C2CNC1C2` (single isomer, unassigned) [Example 17b, 3-(1-((endo)-2-azabicyclo[2.1.1]hexan-5-yl)-8-(2-cyanoethyl)-4-(3-(dimethylamino)azetidin-1-yl)-7-(3-hydroxynaphthalen-1-yl)-1H-imidazo[4,5-c][1,5]naphthyridin-2-yl)-N,N-dimethylpropanamide], the figures for the IC50 at KRAS G12V [1] and at KRAS G12D [4] were 1000 to 5000 nM and 5000 to 10000 nM, respectively. Besides, at KRAS G12D [2], the “G12D_exchange” value is given as “†”.
With `C[C@H](Oc1nc2c(F)c(-c3cccc4c3OCCC4)ncc2c2c1cc(C1CC[C@H]3COC(=O)N13)n2[C@H]1[C@H]2CN[C@@H]1C2)[C@@H]1CCCN1C` (single isomer, unassigned) [Example 26a], the IC50 was no more than 100 nM at KRAS G12V [1] and 1000 to 5000 nM on KRAS G12V [3]. On KRAS G12D [2], the “G12D_exchange” value is given as “†”. Further, on KRAS G12D [4], the “G12D_pERK (KRAS_G12D pERK assay IC50)” value is on record as “†”.
`C[C@H](Oc1nc2c(F)c(-c3cccc4c3OCCC4)ncc2c2c1cc(C1CC[C@H]3COC(=O)N13)n2[C@H]1[C@H]2CN[C@@H]1C2)[C@@H]1CCCN1C` (single isomer, unassigned) [Example 26b]: the IC50 on KRAS G12V [1] was in the range of 100 to 1000 nM; on KRAS G12D [2] (read-out: G12D_exchange (KRAS_G12D exchange assay IC50)) it was 100 to 1000 nM; at KRAS G12D [4] it was 1000 to 5000 nM.
Take `COC(=O)N1CCC[C@@H]1c1cc2c(O[C@@H](C)CN3CCCC3)nc3c(F)c(-c4cccc5scnc45)ncc3c2n1[C@H]1[C@H]2CN[C@@H]1C2` [Example 25, methyl (R)-2-(7-(benzo[d]thiazol-4-yl)-1-((1R,4R,5S)-2-azabicyclo[2.1.1]hexan-5-yl)-6-fluoro-4-(((S)-1-(pyrrolidin-1-yl)propan-2-yl)oxy)-1H-pyrrolo[3,2-c][1,6]naphthyridin-2-yl)pyrrolidine-1-carboxylate]: the 50% inhibitory concentration (IC50) is 100 to 1000 nM at KRAS G12V [1] and 1000 to 5000 nM on KRAS G12V [3]. For the same compound, at KRAS G12D [2], the “G12D_exchange” value is reported as “†”. Moreover, the “G12D_pERK (KRAS_G12D pERK assay IC50)” value at KRAS G12D [4] was “†”.
On to `C[C@H](Oc1nc2c(F)c(-c3cccc4c3OCCC4)ncc2c2c1cc(-c1cn(C)nc1C(=O)N(C)C)n2[C@H]1[C@H]2CN[C@@H]1C2)[C@@H]1CCCN1C` [Example 27, 4-(1-((1R,4R,5S)-2-azabicyclo[2.1.1]hexan-5-yl)-7-(chroman-8-yl)-6-fluoro-4-((S)-1-((S)-1-methylpyrrolidin-2-yl)ethoxy)-1H-pyrrolo[3,2-c][1,6]naphthyridin-2-yl)-N,N,1-trimethyl-1H-pyrazole-3-carboxamide], for which the half-inhibitory concentration (IC50) was no more than 100 nM on KRAS G12V [1], 1000 to 5000 nM on KRAS G12V [3] and 1000 to 5000 nM on KRAS G12D [4]. In addition, the “G12D_exchange” value at KRAS G12D [2] is “†”.

The values are drawn from patent US12441742B2, “Naphthyridine compounds as inhibitors of KRAS” (Incyte Corporation, priority 2021, dated 2025).
